The source of these data is ChEMBL document CHEMBL1201862, “PubChem BioAssay data set” (2004).

Some test systems named below: A549; ACHN; BT-549; CCRF-CEM; DU-145; HCC 2998; HOP-92; K562; MDA-N; Malme-3M; NCI-H522; NCI/ADR-RES; SF-268; SF-539; SK-MEL-28; SK-MEL-5; SK-OV-3; SW-620; TK-10; UO-31.
What all share (assay): NCI-60 cell line screen, 48 h

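In this assay, cells in 96-well plates receive the compound at five concentrations for 48 hours. Endpoints are linearly interpolated between the surrounding concentrations. GI50 = concentration required for 50% inhibition of growth.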 Calls of active or inactive are those of the source. Rule as the data show it: active = GI50 up to about 1.1 µM and inactive = higher. Some results are limits rather than exact numbers.

As to `COC1=CC(=O)c2c(cc(COP(=O)(N(C)CCBr)N(C)CCBr)n2C)C1=O`, the GI50 was 0.185 µM (active) in the assay with A549; < 0.0108 µM (active) in the assay on ACHN; 1.38 µM (inactive) with BT-549; 0.0356 µM (active) with CCRF-CEM; < 0.0235 µM (active) in the assay with DU-145; 0.494 µM (active) with HCC 2998. In addition, the GI50 is 0.69 µM (active) in the assay with HOP-92; 1.52 µM (inactive) in the assay on K562; 1.21 µM (inactive) with MDA-N; 0.906 µM (active) in the assay on Malme-3M; 0.281 µM (active) in the assay with NCI-H522; 1.24 µM (inactive) in the assay on NCI/ADR-RES. For the same compound, the GI50 is 0.183 µM (active) with SF-268; < 0.0178 µM (active) with SF-539; 1.59 µM (inactive) in the assay on SK-MEL-28; 1.07 µM (active) with SK-MEL-5; 0.918 µM (active) with SK-OV-3; 0.187 µM (active) with SW-620. Moreover, in the assay on TK-10, the GI50 was 0.247 µM (active).

As to `Cc1cc(S(=O)(=O)/N=C(\NN)Nc2ccc(Cl)cc2)c(S)cc1Cl`, the GI50 in the assay on A549 is 11 µM (inactive); in the assay with ACHN, 3.06 µM (inactive); in the assay with BT-549, 10.8 µM (inactive); with CCRF-CEM, 3.28 µM (inactive); in the assay with DU-145 it was 4.35 µM (inactive); in the assay with HCC 2998, 11.2 µM (inactive). In addition, the GI50 in the assay with HOP-92 is 34.4 µM (inactive); in the assay on K562 it was 2.13 µM (inactive); in the assay with MDA-N, 8.87 µM (inactive); in the assay with Malme-3M, 16.9 µM (inactive); in the assay with NCI-H522 it was 16 µM (inactive); with NCI/ADR-RES it was 2.71 µM (inactive). The GI50 in the assay with SF-268 is 15.6 µM (inactive); in the assay with SF-539, 14.1 µM (inactive); in the assay with SK-MEL-28 it was 21.6 µM (inactive); in the assay on SK-MEL-5 it was 4.94 µM (inactive); with SK-OV-3 it was 23 µM (inactive); in the assay on SW-620 it was 11.1 µM (inactive). The GI50 is 21.3 µM (inactive) in the assay on TK-10 and 5.58 µM (inactive) in the assay on UO-31.

Turning to `CCCN(CCCCC(NC(C)=O)C(=O)NCc1ccccc1)C(=O)N(CCCl)N=O` (stereo not drawn), the GI50 in the assay with A549 was 32.3 µM (inactive); with ACHN, 25.8 µM (inactive); in the assay on BT-549, 75.7 µM (inactive); in the assay with CCRF-CEM it was 54.6 µM (inactive); with DU-145, 27.2 µM (inactive); with HCC 2998 it was > 58.9 µM (inactive). Moreover, the GI50 in the assay on HOP-92 was 43.8 µM (inactive); with K562, 65.2 µM (inactive); with MDA-N, > 100 µM (inactive); with Malme-3M it was > 100 µM (inactive); in the assay on NCI-H522, > 82.2 µM (inactive); with NCI/ADR-RES, 31.6 µM (inactive). Moreover, the GI50 in the assay with SF-268 is 9.46 µM (inactive); in the assay with SF-539, 8.55 µM (inactive); with SK-MEL-28, > 100 µM (inactive); with SK-MEL-5, > 77.8 µM (inactive); with SK-OV-3, > 100 µM (inactive); with SW-620 it was > 97.1 µM (inactive). Besides, the GI50 was > 100 µM (inactive) with TK-10 and 84.1 µM (inactive) with UO-31.

As for `Nc1ncn(C/C=C/c2ccccc2)c2ncnc1-2`, the GI50 in the assay with A549, with ACHN, with BT-549, in the assay on DU-145, in the assay with HCC 2998 and with HOP-92 was > 100 µM (inactive) in each case. Further, the GI50 with K562 is 8.93 µM (inactive); with MDA-N it was > 100 µM (inactive); with Malme-3M it was > 100 µM (inactive); in the assay on NCI-H522, 78.2 µM (inactive); with NCI/ADR-RES, > 100 µM (inactive); in the assay on SF-268, > 100 µM (inactive). Moreover, the GI50 in the assay with SF-539, in the assay with SK-MEL-28, in the assay on SK-MEL-5, in the assay on SK-OV-3, in the assay with SW-620 and in the assay with TK-10 was > 100 µM (inactive) in each case. Besides, the GI50 with UO-31 is > 100 µM (inactive).

In the case of `O=C1Oc2ccccc2C1C/C(=N\Nc1ccccc1)c1ccccc1O` (stereo not drawn), the GI50 in the assay on A549 is 50 µM (inactive); in the assay with ACHN, 16.6 µM (inactive); with BT-549, 28.6 µM (inactive); in the assay with CCRF-CEM it was 62.1 µM (inactive); with DU-145, 40.7 µM (inactive); in the assay with HCC 2998 it was 34.8 µM (inactive). Further, the GI50 is 25.6 µM (inactive) with HOP-92; 44.5 µM (inactive) in the assay on MDA-N; 41.3 µM (inactive) in the assay with Malme-3M; 38.2 µM (inactive) with NCI-H522; 20.8 µM (inactive) with NCI/ADR-RES; 25.7 µM (inactive) in the assay on SF-268. For the same compound, the GI50 in the assay with SF-539 was 53 µM (inactive); with SK-MEL-28 it was 33.7 µM (inactive); in the assay on SK-MEL-5 it was 33.9 µM (inactive); in the assay on SK-OV-3, 62.1 µM (inactive); in the assay on SW-620, 29.9 µM (inactive); in the assay with TK-10, 48.9 µM (inactive). The GI50 in the assay with UO-31 is 23.3 µM (inactive).

Consider `CNCC(SC)c1ccc(O)c(O)c1` (stereo not drawn), for which the GI50 was > 100 µM (inactive) with A549; 17.7 µM (inactive) in the assay with ACHN; 16.6 µM (inactive) in the assay with BT-549; 2.67 µM (inactive) in the assay with CCRF-CEM; 17.9 µM (inactive) in the assay on DU-145; 16.7 µM (inactive) in the assay with HCC 2998. Also, the GI50 in the assay with HOP-92 was 20.4 µM (inactive); with K562 it was 23.7 µM (inactive); in the assay on MDA-N, 18.5 µM (inactive); with Malme-3M it was 17.5 µM (inactive); in the assay with NCI-H522, 13.7 µM (inactive); in the assay with NCI/ADR-RES it was 34.9 µM (inactive). Further, the GI50 in the assay with SF-268 is 38.1 µM (inactive); with SK-MEL-28, 53.2 µM (inactive); in the assay on SK-MEL-5, 52.8 µM (inactive); in the assay with SK-OV-3 it was > 100 µM (inactive); in the assay with SW-620 it was 19.4 µM (inactive); in the assay with TK-10, 19.1 µM (inactive). The GI50 in the assay with UO-31 was 43 µM (inactive).

Consider `C=CCN1CCC(OC(=O)C(O)(C#CC)C2CCCC2)CC1` (stereo not drawn), for which the GI50 in the assay on A549, with ACHN, with BT-549, with DU-145, in the assay on HCC 2998 and in the assay on HOP-92 was > 100 µM (inactive) throughout. In addition, the GI50 in the assay on MDA-N, in the assay on Malme-3M, with NCI-H522, with NCI/ADR-RES, with SF-268 and with SF-539 was > 100 µM (inactive) throughout. Moreover, the GI50 with SK-MEL-28, with SK-MEL-5, in the assay on SK-OV-3, in the assay on SW-620, in the assay on TK-10 and in the assay on UO-31 was > 100 µM (inactive) throughout.

For `N#Cc1nc(C#N)n(C(=O)c2ccccc2)c1NC(=O)c1ccccc1`, the GI50 in the assay with A549, in the assay with ACHN, with BT-549, in the assay with CCRF-CEM, with DU-145 and in the assay with HCC 2998 was > 100 µM (inactive) throughout. In addition, the GI50 in the assay with HOP-92, with K562, with MDA-N, in the assay with Malme-3M, with NCI-H522 and with NCI/ADR-RES was > 100 µM (inactive) each time. The GI50 in the assay with SF-268, in the assay on SF-539, with SK-MEL-28, in the assay with SK-MEL-5, in the assay with SK-OV-3 and in the assay with SW-620 was > 100 µM (inactive) throughout. For the same compound, the GI50 in the assay with TK-10 and in the assay with UO-31 was > 100 µM (inactive) throughout.

As to `CCOC(=O)N(C)CCC1CC=CC(=O)C1c1cccc(OC)c1OC` (stereo not drawn), the GI50 in the assay with A549 is 25.4 µM (inactive); with ACHN, 34 µM (inactive); in the assay on BT-549, 15 µM (inactive); in the assay on CCRF-CEM, 10.6 µM (inactive); in the assay on DU-145, 12.1 µM (inactive); with HCC 2998, 13.1 µM (inactive). The GI50 was 65.3 µM (inactive) in the assay with HOP-92; 23.2 µM (inactive) with K562; 13.1 µM (inactive) in the assay with MDA-N; 22.9 µM (inactive) in the assay with Malme-3M; 13.6 µM (inactive) with NCI-H522; 19.8 µM (inactive) in the assay with NCI/ADR-RES. Besides, the GI50 with SF-268 was 19.9 µM (inactive); in the assay on SF-539, 9.91 µM (inactive); with SK-MEL-5, 9.53 µM (inactive); in the assay with SK-OV-3 it was 37.4 µM (inactive); in the assay on SW-620, 20.9 µM (inactive); with TK-10, 22.5 µM (inactive). Besides, the GI50 with UO-31 is 16.6 µM (inactive).

For the compound `CCCCCCCCCCCCC(O)[C@H]1CC[C@H](C(O)CCCCCC(=O)CCCCC2CC(C(C)=O)C(=O)O2)O1` (stereo partly drawn), the GI50 in the assay with A549 is 3.7 µM (inactive); in the assay on ACHN it was 7.29 µM (inactive); with BT-549 it was 15 µM (inactive); with CCRF-CEM it was 3.17 µM (inactive); in the assay on DU-145, > 43.6 µM (inactive); in the assay with HCC 2998 it was 16.2 µM (inactive). Besides, the GI50 with HOP-92 is 10.4 µM (inactive); in the assay with K562, 1.33 µM (inactive); in the assay with MDA-N it was 3.68 µM (inactive); in the assay with Malme-3M, 11.5 µM (inactive); in the assay with NCI-H522 it was 3.94 µM (inactive); in the assay on NCI/ADR-RES, 3.44 µM (inactive). Further, the GI50 with SF-268 was 12.3 µM (inactive); in the assay on SF-539, 14.1 µM (inactive); in the assay with SK-MEL-28, 16.9 µM (inactive); in the assay with SK-MEL-5, 0.802 µM (active); with SK-OV-3, 9.68 µM (inactive); in the assay with SW-620, 11.4 µM (inactive). Besides, the GI50 in the assay on TK-10 is 14.1 µM (inactive); in the assay on UO-31, 8.97 µM (inactive).
